# How the values were obtained:
# BTK [1] = biological target: T1, BTK (Homo sapiens (Human), UniProt Q06187); experiment: In Vitro BTK Kinase Assay: BTK-POLYGAT-LS ASSAY; format: biochemical; settings: ATP 10 μM, polyGAT 100 nM, BTK 0.25 nM, 30 minutes
# Procedure: The purpose of the BTK in vitro assay is to determine compound potency against BTK through the measurement of IC50. […] The BTK kinase reaction was done in a black 96 well plate (costar 3694). For a typical assay, a 24 μL aliquot of a ATP/peptide master mix (final concentration; ATP 10 μM, polyGAT 100 nM) in kinase buffer (10 mM Tris-HCl pH 7.5, 10 mM MgCl2, 200 μM […], 5 mM DTT, 0.01% Triton X-100, and 0.2 mg/ml casein) is added to each well. Next, […] of a 4-fold, 40× compound titration in 100% DMSO solvent is added, followed by adding 15 μL of BTK enzyme mix in 1× kinase buffer (with a final concentration of 0.25 nM). The assay is incubated for 30 minutes before being stopped with […] of a 50 mM EDTA solution. Aliquots (5 μL) of the kinase reaction are transferred to a low volume white 384 well plate (Coming 3674), and […] of a 2× detection buffer (Invitrogen PV3574, with 4 nM Tb-PY20 antibody, Invitrogen PV3552) is added. The plate is covered and incubated for 45 minutes at room temperature. Time resolved fluorescence (TRF) on Molecular Devices M5 (332 nm excitation; 488 nm emission; 518 nm fluorescein emission) is measured.
# BTK [2] = biological target: T1, BTK; experiment: In Vitro PD Assay in Human Whole Blood (pBTK assay); format: cell-based; settings: 37° C. for 30 min, 50% inhibition of ECL signal
# Procedure: Human heparinized venous blood was purchased from Bioreclamation, Inc. or SeraCare Life Sciences and shipped overnight. Whole blood was aliquoted into 96-well plate and “spiked” with serial dilutions of test compound in DMSO or with DMSO without drug. The final concentration of DMSO in all wells was 0.1%. The plate was incubated at 37° C. for 30 min. Lysis buffer containing protease and phosphatase inhibitors was added to the drug-containing samples and one of the DMSO-only samples (+PPi, high control), while lysis buffer containing protease inhibitors was added to the other DMSO-only samples (−PPi, low control). All of the lysed whole blood samples were subjected to the total BTK capture and phosphotyrosine detection method described in US20160311802, incorporated herein by reference.
# T1 sequence (Q06187 whole entry): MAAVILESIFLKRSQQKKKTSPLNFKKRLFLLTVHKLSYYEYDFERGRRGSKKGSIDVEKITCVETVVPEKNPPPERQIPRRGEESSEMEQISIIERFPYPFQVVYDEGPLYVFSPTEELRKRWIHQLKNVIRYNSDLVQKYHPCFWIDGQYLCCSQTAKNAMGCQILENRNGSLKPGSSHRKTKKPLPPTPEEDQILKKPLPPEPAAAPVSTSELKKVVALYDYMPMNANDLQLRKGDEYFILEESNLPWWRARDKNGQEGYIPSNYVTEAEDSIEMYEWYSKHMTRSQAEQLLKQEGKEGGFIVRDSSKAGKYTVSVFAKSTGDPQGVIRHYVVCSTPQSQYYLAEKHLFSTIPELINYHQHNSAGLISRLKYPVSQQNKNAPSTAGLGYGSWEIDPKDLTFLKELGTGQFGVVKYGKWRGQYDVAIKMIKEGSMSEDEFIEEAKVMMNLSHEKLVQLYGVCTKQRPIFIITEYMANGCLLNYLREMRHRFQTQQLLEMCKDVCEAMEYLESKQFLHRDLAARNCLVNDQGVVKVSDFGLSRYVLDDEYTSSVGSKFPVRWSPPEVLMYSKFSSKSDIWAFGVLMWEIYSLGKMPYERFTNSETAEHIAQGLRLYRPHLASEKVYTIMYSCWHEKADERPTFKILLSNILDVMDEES
SMILES,IC50 (BTK [1]) [nM],IC50 (BTK [2]) [nM]
"CC(C)(C)c1noc(C(=O)NCc2ccc(-c3ccnc(NC(=O)C4CC4)c3)c(F)c2Cl)n1 [Compound 15, 3-(tert-butyl)-N-(2-chloro-4-(2-(cyclopropanecarboxamido)pyridin-4-yl)-3-fluorobenzyl)-1,2,4-oxadiazole-5-carboxamide]",≤ 1,≤ 100
"CC(C)(C)c1nc(C(=O)NCc2ccc(-c3ccnc(NC(=O)C4CC4)c3)cc2C(F)(F)F)no1 [Compound 16, 5-(tert-butyl)-N-(4-(2-(cyclopropanecarboxamido)pyridin-4-yl)-2-(trifluoromethyl)benzyl)-1,2,4-oxadiazole-3-carboxamide]",≤ 1,100 to 500
"CC(C)(C)c1noc(C(=O)NCc2ccc(-c3ccnc(NC(=O)C4CC4)c3)cc2C(F)(F)F)n1 [Compound 17, 3-(tert-butyl)-N-(4-(2-(cyclopropanecarboxamido)pyridin-4-yl)-2-(trifluoromethyl)benzyl)-1,2,4-oxadiazole-5-carboxamide]",≤ 1,≤ 100
"CC(C)(C)c1noc(C(=O)N[C@@H]2CCCCc3cc(-c4ccnc(NC(=O)C5CC5)c4)ccc32)n1 [Compound 18, (R)-3-(tert-butyl)-N-(2-(2-(cyclopropanecarboxamido)pyridin-4-yl)-6,7,8,9-tetrahydro-5H-benzo[7]annulen-5-yl)-1,2,4-oxadiazole-5-carboxamide]",≤ 1,≤ 100
"Cc1cc(-c2ccnc(NC(=O)C3CC3)c2)ccc1[C@@H](C)NC(=O)c1noc(C(C)(C)C)n1 [Compound 19, (R)-5-(tert-butyl)-N-(1-(4-(2-(cyclopropanecarboxamido)pyridin-4-yl)-2-methylphenyl)ethyl)-1,2,4-oxadiazole-3-carboxamide]",≤ 1,≤ 100
"Cc1cc(-c2cc(NC(=O)C3CC3)ncc2F)ccc1[C@@H](C)NC(=O)c1noc(C(C)(C)C)n1 [Compound 20, (R)-5-(tert-butyl)-N-(1-(4-(2-(cyclopropanecarboxamido)-5-fluoropyridin-4-yl)-2-methylphenyl)ethyl)-1,2,4-oxadiazole-3-carboxamide]",≤ 1,≤ 100
"C[C@@H](NC(=O)c1noc(C(C)(C)C)n1)c1ccc(-c2ccnc(NC(=O)C3CC3)c2)cc1Cl [Compound 21, (R)-5-(tert-butyl)-N-(1-(2-chloro-4-(2-(cyclopropanecarboxamido)pyridin-4-yl)phenyl)ethyl)-1,2,4-oxadiazole-3-carboxamide]",≤ 1,≤ 100
"C[C@@H](NC(=O)c1noc(C(C)(C)C)n1)c1ccc(-c2cc(NC(=O)C3CC3)ncc2F)cc1Cl [Compound 22, (R)-5-(tert-butyl)-N-(1-(2-chloro-4-(2-(cyclopropanecarboxamido)-5-fluoropyridin-4-yl)phenyl)ethyl)-1,2,4-oxadiazole-3-carboxamide]",≤ 1,100 to 500
"Cc1cc(-c2cc(NC(=O)C3CC3)ncc2C(F)(F)F)ccc1CNC(=O)c1noc(C(C)(C)C)n1 [Compound 26, 5-(tert-butyl)-N-(4-(2-(cyclopropanecarboxamido)-5-(trifluoromethyl)pyridin-4-yl)-2-methylbenzyl)-1,2,4-oxadiazole-3-carboxamide]",1 to 10,> 10000
"CC(C)(C)n1cc(F)c(C(=O)NCc2ccc(-c3ccnc(NC(=O)C4CC4)c3)c(F)c2C2CC2)n1 [Compound 29, 1-(tert-butyl)-N-(4-(2-(cyclopropanecarboxamido)pyridin-4-yl)-2-cyclopropyl-3-fluorobenzyl)-4-fluoro-1H-pyrazole-3-carboxamide]",1 to 10,500 to 10000
"CC(C)(C)c1ncc(C(=O)NCc2ccc(-c3ccnc(NC(=O)C4CC4)c3)c(F)c2C2CC2)o1 [Compound 30, 2-(tert-butyl)-N-(4-(2-(cyclopropanecarboxamido)pyridin-4-yl)-2-cyclopropyl-3-fluorobenzyl)oxazole-5-carboxamide]",1 to 10,> 10000
"Cc1c(CNC(=O)c2nn(C(C)(C)C)cc2F)ccc(-c2ccnc(NC(=O)C3CC3)c2)c1F [Compound 31, 1-(tert-butyl)-N-(4-(2-(cyclopropanecarboxamido)pyridin-4-yl)-3-fluoro-2-methylbenzyl)-4-fluoro-1H-pyrazole-3-carboxamide]",≤ 1,500 to 10000
"Cc1c(CNC(=O)c2cnc(C(C)(C)C)o2)ccc(-c2ccnc(NC(=O)C3CC3)c2)c1F [Compound 32, 2-(tert-butyl)-N-(4-(2-(cyclopropanecarboxamido)pyridin-4-yl)-3-fluoro-2-methylbenzyl)oxazole-5-carboxamide]",≤ 1,500 to 10000
"CC(C)(C)c1nc(C(=O)NCc2ccc(-c3ccnc(NC(=O)C4CC4)c3)c(F)c2C2CC2)no1 [Compound 33, 5-(tert-butyl)-N-(4-(2-(cyclopropanecarboxamido)pyridin-4-yl)-2-cyclopropyl-3-fluorobenzyl)-1,2,4-oxadiazole-3-carboxamide]",≤ 1,500 to 10000
"CC(C)(C)c1noc(C(=O)NCc2ccc(-c3ccnc(NC(=O)C4CC4)c3)c(F)c2C2CC2)n1 [Compound 34, 3-(tert-butyl)-N-(4-(2-(cyclopropanecarboxamido)pyridin-4-yl)-2-cyclopropyl-3-fluorobenzyl)-1,2,4-oxadiazole-5-carboxamide]",≤ 1,500 to 10000
"Cc1cc(-c2ccnc(NC(=O)C3CC3)c2)ccc1CNC(=O)c1noc(C(C)(C)CO)n1 [Compound 35, N-(4-(2-(cyclopropanecarboxamido)pyridin-4-yl)-2-methylbenzyl)-5-(1-hydroxy-2-methylpropan-2-yl)-1,2,4-oxadiazole-3-carboxamide]",1 to 10,500 to 10000
Cc1cc(-c2ccnc(NC(=O)C3CC34CCC4)c2)ccc1CNC(=O)c1noc(C(C)(C)C)n1 (stereo not drawn) [Compound 36],1 to 10,> 10000
"Cc1cc(-c2ccnc(NC(=O)[C@H]3C[C@@H]3F)c2)ccc1CNC(=O)c1noc(C(C)(C)C)n1 [Compound 37, 5-(tert-butyl)-N-(4-(2-((1R,2S)-2-fluorocyclopropane-1-carboxamido)pyridin-4-yl)-2-methylbenzyl)-1,2,4-oxadiazole-3-carboxamide]",≤ 1,500 to 10000
"Cc1cc(-c2ccnc(NC(=O)[C@@H]3C[C@H]3F)c2)ccc1CNC(=O)c1noc(C(C)(C)C)n1 [Compound 38, 5-(tert-butyl)-N-(4-(2-((1S,2R)-2-fluorocyclopropane-1-carboxamido)pyridin-4-yl)-2-methylbenzyl)-1,2,4-oxadiazole-3-carboxamide]",≤ 1,500 to 10000
"Cc1cc(-c2ccnc(NC(=O)C3CC3)c2)ccc1CNC(=O)c1nc(C(C)(C)CF)no1 [Compound 39, N-(4-(2-(cyclopropanecarboxamido)pyridin-4-yl)-2-methylbenzyl)-3-(1-fluoro-2-methylpropan-2-yl)-1,2,4-oxadiazole-5-carboxamide]",≤ 1,100 to 500
"Cc1cc(-c2ccnc(NC(=O)C3CC3)c2)ccc1CNC(=O)c1noc(C(C)(C)CF)n1 [Compound 41, N-(4-(2-(cyclopropanecarboxamido)pyridin-4-yl)-2-methylbenzyl)-5-(1-fluoro-2-methylpropan-2-yl)-1,2,4-oxadiazole-3-carboxamide]",≤ 1,500 to 10000
"CC(C)(C)c1noc(C(=O)N[C@@H]2CCCCc3cc(-c4ccnc(NC(=O)[C@@H]5CC56CCC6)c4)ccc32)n1 [Compound 42, 3-(tert-butyl)-N-((R)-2-(2-((R)-spiro[2.3]hexane-1-carboxamido)pyridin-4-yl)-6,7,8,9-tetrahydro-5H-benzo[7]annulen-5-yl)-1,2,4-oxadiazole-5-carboxamide]",≤ 1,500 to 10000
"Cc1cc(-c2ccnc(NC(=O)C3CC3)c2F)ccc1CNC(=O)c1noc(C(C)(C)C)n1 [Compound 44, 5-(tert-butyl)-N-(4-(2-(cyclopropanecarboxamido)-3-fluoropyridin-4-yl)-2-methylbenzyl)-1,2,4-oxadiazole-3-carboxamide]",1 to 10,500 to 10000
"CC(C)(C)c1noc(C(=O)N[C@@H]2CCCCc3cc(-c4ccnc(NC(=O)[C@@H]5CC5(C)C)c4)ccc32)n1 [Compound 45, 3-(tert-butyl)-N-((R)-2-(2-((R)-2,2-dimethylcyclopropane-1-carboxamido)pyridin-4-yl)-6,7,8,9-tetrahydro-5H-benzo[7]annulen-5-yl)-1,2,4-oxadiazole-5-carboxamide]",1 to 10,> 10000
